Data from PMC8241751, “Influence of the Dabcyl group on the cellular uptake of cationic peptides: short oligoarginines as efficient cell-penetrating peptides” (Amino Acids, 2021).
Where a SMILES comes first, the peptide text is derived from it. The star is where a group is joined. 5FAM = O=C1OC2(c3ccc(O)cc3Oc3cc(O)ccc32)c2ccc(C(=O)*)cc21; X1 = CN(C)c1ccc(/N=N/c2ccc(C(=O)*)cc2)cc1

Tested on: HL-60 cells
Assay: In vitro cytostatic activity (MTT) on HL-60
Type: cell-based, human
Conditions: HL-60; 3 h incubation, then 3 days in serum-containing medium; MTT assay; ± sd, three independent experiments with four parallels
Protocol: The cells (HL-60 or MCF-7) were grown to confluency and were plated into 96-well plate with initial cell number of 5 × 10^3 per well. After 24 h incubation at 37 °C, cells were treated with the compounds at 1.28 × 10^–3–100 μM concentration range for 3 h in 200 μL final volume. Control cells were treated with serum free medium at 37 °C for 3 h. After incubation the cells were washed twice with serum free medium. For the analysis of the in vitro cytostatic effect, cells were cultured for an additional 72 h in serum containing medium. On day 4, MTT assay was carried out to determine the IC50 values of the compounds. Briefly, 45 μL of MTT solution was added to each well (2 mg/mL, dissolved in serum-free medium). Following the 4 h incubation, plates were centrifuged at 900 g for 5 min, and the supernatant was removed. The precipitated purple crystals were dissolved in 100 μL DMSO and the absorbance was determined at λ = 540 nm and λ = 620 nm using ELISA plate reader (iEMSReader, Labsystems, Finland). The percent of cytostasis was calculated using the following equation: Cytostatic effect (%) = [1 − (ODtreated/ODcontrol)] × 100; where ODtreated and ODcontrol correspond to the optical densities of the treated and the untreated control cells, respectively. In each case three independent experiments were carried out with four parallel measurements. […] The curves were defined using MicrocalTM Origin (version 9.2) software: cytostasis was plotted as a function of concentration, fitted to a sigmoidal curve, and based on this curve, the IC50 value was determined.

CN(C)c1ccc(/N=N/c2ccc(C(=O)N[C@@H](CCCNC(=N)N)C(=O)N[C@@H](CCCNC(=N)N)C(=O)N[C@@H](CCCNC(=N)N)C(=O)N[C@@H](CCCNC(=N)N)C(=O)N[C@@H](CCCNC(=N)N)C(=O)N[C@@H](CCCNC(=N)N)C(=O)N[C@@H](CCCCNC(=O)c3ccc4c(c3)C(=O)OC43c4ccc(O)cc4Oc4cc(O)ccc43)C(N)=O)cc2)cc1 [Dabcyl–Arg6–Lys(Cf)–NH2] (X1-RRRRRRK(5FAM)-NH2)
IC50: 21.8 ± 8.2 µM
